Assay results published in patent publication US20110039721A1, “METHOD FOR PREDICTION ABOUT CARCINOGENICITY OF SUBSTANCE IN RODENT” (Chemicals Evaluation and Research Institute, priority 2007, published 2011).

Tested on: mRNA expressed from the genes (A) to (D) in rat liver
Assay: Behavior of genes (mRNA expression level, oligo-DNA microarray) in rat liver after 28-day oral administration
Type: in vivo
Conditions: rat liver, oral once daily 28 days; for Behavior of gene caused by administration of chemical substance, Gene No. 4846 / Behavior of gene caused by administration of chemical substance, Gene No. 4218 / Behavior of gene caused by administration of chemical substance, Gene No. 2026 / Behavior of gene caused by administration of chemical substance, Gene No. 6182 / Behavior of gene caused by administration of chemical substance, Gene No. 5600: (A); for Behavior of gene caused by administration of chemical substance, Gene No. 4846: Unigene Rn.144554, defined direction +; for Behavior of gene caused by administration of chemical substance, Gene No. 4218: Unigene Rn.167075, defined direction +, significant = 1.5 times or more or 1/1.5 or less of control; for Behavior of gene caused by administration of chemical substance, Gene No. 2026: Unigene Rn.167075, defined direction −; for Behavior of gene caused by administration of chemical substance, Gene No. 6182: Unigene Rn.5834, defined direction +; for Behavior of gene caused by administration of chemical substance, Gene No. 5600: Unigene Rn.9836, defined direction +; for Behavior of gene caused by administration of chemical substance, Gene No. 1494 / Behavior of gene caused by administration of chemical substance, Gene No. 2045 / Behavior of gene caused by administration of chemical substance, Gene No. 2203: (B); for Behavior of gene caused by administration of chemical substance, Gene No. 1494: Unigene Rn.1430, defined direction −; for Behavior of gene caused by administration of chemical substance, Gene No. 2045: Unigene Rn.19329, defined direction +; for Behavior of gene caused by administration of chemical substance, Gene No. 2203: Unigene Rn.21240, defined direction +; for Behavior of gene caused by administration of chemical substance, Gene No. 533 / Behavior of gene caused by administration of chemical substance, Gene No. 725 / Behavior of gene caused by administration of chemical substance, Gene No. 1163 / Behavior of gene caused by administration of chemical substance, Gene No. 4973 / Behavior of gene caused by administration of chemical substance, Gene No. 4095 / Behavior of gene caused by administration of chemical substance, Gene No. 1334 / Behavior of gene caused by administration of chemical substance, Gene No. 6620 / Behavior of gene caused by administration of chemical substance, Gene No. 6303 / Behavior of gene caused by administration of chemical substance, Gene No. 5878 / Behavior of gene caused by administration of chemical substance, Gene No. 1131 / Behavior of gene caused by administration of chemical substance, Gene No. 1562 / Behavior of gene caused by administration of chemical substance, Gene No. 1741 / Behavior of gene caused by administration of chemical substance, Gene No. 893 / Behavior of gene caused by administration of chemical substance, Gene No. 6026 / Behavior of gene caused by administration of chemical substance, Gene No. 154 / Behavior of gene caused by administration of chemical substance, Gene No. 1993 / Behavior of gene caused by administration of chemical substance, Gene No. 813 / Behavior of gene caused by administration of chemical substance, Gene No. 2494 / Behavior of gene caused by administration of chemical substance, Gene No. 2546 / Behavior of gene caused by administration of chemical substance, Gene No. 3776 / Behavior of gene caused by administration of chemical substance, Gene No. 3929 / Behavior of gene caused by administration of chemical substance, Gene No. 1119 / Behavior of gene caused by administration of chemical substance, Gene No. 6742 / Behavior of gene caused by administration of chemical substance, Gene No. 5634: (C); for Behavior of gene caused by administration of chemical substance, Gene No. 533: Unigene Rn.106184, defined direction +; for Behavior of gene caused by administration of chemical substance, Gene No. 725: Unigene Rn.108075, defined direction −; for Behavior of gene caused by administration of chemical substance, Gene No. 1163: Unigene Rn.11766, defined direction +; for Behavior of gene caused by administration of chemical substance, Gene No. 4973: Unigene Rn.118529, defined direction −; for Behavior of gene caused by administration of chemical substance, Gene No. 4095: Unigene Rn.119024, defined direction −; for Behavior of gene caused by administration of chemical substance, Gene No. 1334 / Behavior of gene caused by administration of chemical substance, Gene No. 6620: Unigene Rn.120914, defined direction +; for Behavior of gene caused by administration of chemical substance, Gene No. 6303: Unigene Rn.123063, defined direction −; for Behavior of gene caused by administration of chemical substance, Gene No. 5878: Unigene Rn.143213, defined direction −; for Behavior of gene caused by administration of chemical substance, Gene No. 1131: Unigene Rn.144946, defined direction −; for Behavior of gene caused by administration of chemical substance, Gene No. 1562: Unigene Rn.14744, defined direction −; for Behavior of gene caused by administration of chemical substance, Gene No. 1741: Unigene Rn.1647, defined direction −; for Behavior of gene caused by administration of chemical substance, Gene No. 893: Unigene Rn.164817, defined direction +; for Behavior of gene caused by administration of chemical substance, Gene No. 6026: Unigene Rn.167685, defined direction −; for Behavior of gene caused by administration of chemical substance, Gene No. 154: Unigene Rn.185941, defined direction −; for Behavior of gene caused by administration of chemical substance, Gene No. 1993: Unigene Rn.18728, defined direction −; for Behavior of gene caused by administration of chemical substance, Gene No. 813: Unigene Rn.201760, defined direction +; for Behavior of gene caused by administration of chemical substance, Gene No. 2494: Unigene Rn.23969, defined direction +; for Behavior of gene caused by administration of chemical substance, Gene No. 2546: Unigene Rn.24561, defined direction −; for Behavior of gene caused by administration of chemical substance, Gene No. 3776: Unigene Rn.43232, defined direction −; for Behavior of gene caused by administration of chemical substance, Gene No. 3929: Unigene Rn.4620, defined direction +; for Behavior of gene caused by administration of chemical substance, Gene No. 1119: Unigene Rn.9757, defined direction +; for Behavior of gene caused by administration of chemical substance, Gene No. 6742: Unigene Rn.9779, defined direction +; for Behavior of gene caused by administration of chemical substance, Gene No. 5634: Unigene Rn.9862, defined direction −; for Behavior of gene caused by administration of chemical substance, Gene No. 5726: (D), Unigene Rn.9939, defined direction −
Method: A test solution was prepared by dissolving each of the carcinogens and the non-carcinogens shown in Tables 2 to 6 in the corresponding solvent shown in Tables 2 to 6. Each of the thus prepared test solutions and the solvents used for the preparation was administered by oral gavage to rats in each group. As the rats, male rats (F344 SPF rats) at 5 weeks of age obtained from Charles River Laboratories Japan, Inc. were used. The animals were divided into groups, each containing four individuals. The volume of the solvent administered to the vehicle control group was set to the same volume as that of the test solution administered to the carcinogen administration group or the non-carcinogen administration group. The administration of the test solution or the solvent was performed once daily for 28 days. Apiece was excised from the liver of each of the rats after a lapse of 28 days from the initiation of the administration, and the total RNA was extracted and purified.
The expression level of mRNA was compared between each of the chemical substance administration groups and the corresponding vehicle control group, and genes that satisfy the requirements described in (A) to (D) were selected, respectively.
The case where the expression level of mRNA in the carcinogen administration group or the non-carcinogen administration group is 1.5 times or more or 1/1.5 or less of the expression level of the corresponding mRNA expressed in the control group was determined to be significant. In this connection, the determination as to whether or not the change is significant was performed by taking into consideration the direction of increase or decrease in the expression level. In the case where the direction of increase or decrease is different as compared with the case where another carcinogen was administered, the change was determined to be not significant.

SMILES	Behavior of gene caused by administration of chemical substance, Gene No. 4846	Behavior of gene caused by administration of chemical substance, Gene No. 4218	Behavior of gene caused by administration of chemical substance, Gene No. 2026	Behavior of gene caused by administration of chemical substance, Gene No. 6182	Behavior of gene caused by administration of chemical substance, Gene No. 5600	Behavior of gene caused by administration of chemical substance, Gene No. 1494	Behavior of gene caused by administration of chemical substance, Gene No. 2045	Behavior of gene caused by administration of chemical substance, Gene No. 2203	Behavior of gene caused by administration of chemical substance, Gene No. 533	Behavior of gene caused by administration of chemical substance, Gene No. 725	Behavior of gene caused by administration of chemical substance, Gene No. 1163	Behavior of gene caused by administration of chemical substance, Gene No. 4973	Behavior of gene caused by administration of chemical substance, Gene No. 4095	Behavior of gene caused by administration of chemical substance, Gene No. 1334	Behavior of gene caused by administration of chemical substance, Gene No. 6620	Behavior of gene caused by administration of chemical substance, Gene No. 6303	Behavior of gene caused by administration of chemical substance, Gene No. 5878	Behavior of gene caused by administration of chemical substance, Gene No. 1131	Behavior of gene caused by administration of chemical substance, Gene No. 1562	Behavior of gene caused by administration of chemical substance, Gene No. 1741	also measured
C1COCCO1 [TS027, 1,4-Dioxane]	+	+	+	+	+	+	−	−	+	−	−	−	−	−	−	−	−	−	+	+	Behavior of gene caused by administration of chemical substance, Gene No. 893: −; Behavior of gene caused by administration of chemical substance, Gene No. 6026: −; Behavior of gene caused by administration of chemical substance, Gene No. 154: +; Behavior of gene caused by administration of chemical substance, Gene No. 1993: +; Behavior of gene caused by administration of chemical substance, Gene No. 813: +; Behavior of gene caused by administration of chemical substance, Gene No. 2494: −; Behavior of gene caused by administration of chemical substance, Gene No. 2546: −; Behavior of gene caused by administration of chemical substance, Gene No. 3776: −; Behavior of gene caused by administration of chemical substance, Gene No. 3929: −; Behavior of gene caused by administration of chemical substance, Gene No. 1119: +; Behavior of gene caused by administration of chemical substance, Gene No. 6742: +; Behavior of gene caused by administration of chemical substance, Gene No. 5634: −; Behavior of gene caused by administration of chemical substance, Gene No. 5726: −
COC(N)=O [TS029, Methyl carbamate]	+	+	+	+	+	+	−	−	+	−	−	−	−	−	−	+	−	−	+	+	Behavior of gene caused by administration of chemical substance, Gene No. 893: −; Behavior of gene caused by administration of chemical substance, Gene No. 6026: −; Behavior of gene caused by administration of chemical substance, Gene No. 154: +; Behavior of gene caused by administration of chemical substance, Gene No. 1993: +; Behavior of gene caused by administration of chemical substance, Gene No. 813: −; Behavior of gene caused by administration of chemical substance, Gene No. 2494: −; Behavior of gene caused by administration of chemical substance, Gene No. 2546: −; Behavior of gene caused by administration of chemical substance, Gene No. 3776: +; Behavior of gene caused by administration of chemical substance, Gene No. 3929: −; Behavior of gene caused by administration of chemical substance, Gene No. 1119: −; Behavior of gene caused by administration of chemical substance, Gene No. 6742: −; Behavior of gene caused by administration of chemical substance, Gene No. 5634: −; Behavior of gene caused by administration of chemical substance, Gene No. 5726: −
